One assay deals with HCT116 MTAP null cells. In words: HCT116 MTAP null cell proliferation / viability (CellTiter-Glo, 6 days). It is filed as cell-based. The conditions noted are these: HCT116-MTAP null, 144 h, HCT116 MTAP null cells, 6 days, CellTiter-Glo; read-out: HCT-116 MTAP null IC50. Summed up:
(§1)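 CellTiter-Glo luminescence, 6-day exposure, RPMI 1640 + 10% FBS. Dosing: 1:3 series (8-9 pts, top 1 or 10 μM) or 1:2 series (22 pts, top 10 or 50 μM), DMSO control. IC50 = 50% of control via curve fit.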
A general note: ATP-based viability assays read luminescence as a measure of living cells.

Another assay concerns HCT116 WT cells. In words: HCT116 WT cell proliferation / viability (CellTiter-Glo, 6 days). The conditions noted are these: Homo sapiens, HCT-116, 144 h, HCT116 WT cells, 6 days, CellTiter-Glo; read-out: HCT-116 WT IC50. It is filed as cell-based. Summed up:
as §1

Where only a bound is given, the exact number is not on record here.

As a reminder, the IC50 is the concentration that inhibits the measured activity by half. With `C[C@H](c1cnc(C(F)(F)F)cn1)N(C)C(=O)c1ccc2nc(N)c3c(c2c1)COC3` [Example 774, 4-amino-N-methyl-N-((1R)-1-(5-(trifluoromethyl)-2-pyrazinyl)ethyl)-1,3-dihydrofuro[3,4-c]quinoline-8-carboxamide], the results for the IC50 with HCT116 MTAP null cells and in the assay with HCT116 WT cells were 736 nM and 40600 nM, respectively.
On to `CCN(C(=O)c1ccc2nc(N)c3c(c2c1)CO[C@@H]3C)[C@H](C)c1ccc(C(F)F)cn1` [Example 775, (3R)-4-amino-N-((1R)-1-(5-(difluoromethyl)-2-pyridinyl)ethyl)-N-ethyl-3-methyl-1,3-dihydrofuro[3,4-c]quinoline-8-carboxamide], for which the IC50 in the assay on HCT116 MTAP null cells was 33 nM; in the assay with HCT116 WT cells, 2680 nM.
Turning to `C[C@H](c1cnc(C(F)(F)F)cn1)N(C)C(=O)c1ccc2nc(N)c3cnn(C)c3c2c1` [Example 776, 4-amino-N,1-dimethyl-N-((1R)-1-(5-(trifluoromethyl)-2-pyrazinyl)ethyl)-1H-pyrazolo[4,3-c]quinoline-8-carboxamide], the results for the IC50 in the assay with HCT116 MTAP null cells and in the assay with HCT116 WT cells were 150 nM and more than 10000 nM, respectively.
With `CCN(C(=O)c1ccc2nc(N)c3c(c2c1)CO[C@@H]3C)[C@H](C)c1ccc(C(F)(F)F)cn1` [Example 777, (3R)-4-amino-N-ethyl-3-methyl-N-((1R)-1-(5-(trifluoromethyl)-2-pyridinyl)ethyl)-1,3-dihydrofuro[3,4-c]quinoline-8-carboxamide], the IC50 stood at 25 nM in the assay with HCT116 MTAP null cells and 1380 nM with HCT116 WT cells.
In the same order, the values of `CCN(C(=O)c1ccc2nc(N)c3c(c2c1)CO[C@@H]3C)[C@H](C)c1ccc(C(F)(F)F)nn1` [Example 778, (3R)-4-amino-N-ethyl-3-methyl-N-((1R)-1-(6-(trifluoromethyl)-3-pyridazinyl)ethyl)-1,3-dihydrofuro[3,4-c]quinoline-8-carboxamide] are 49 nM and 2660 nM.
Consider `C[C@H](c1ccc(C(F)(F)F)nn1)N(C)C(=O)c1cc2c(cc1F)nc(N)c1c2cnn1C` [Example 779, 4-amino-7-fluoro-N,3-dimethyl-N-((1R)-1-(6-(trifluoromethyl)-3-pyridazinyl)ethyl)-3H-pyrazolo[3,4-c]quinoline-8-carboxamide], for which the IC50 with HCT116 MTAP null cells came out at 364 nM; in the assay on HCT116 WT cells, 28900 nM.
Consider `C[C@H](c1cnc(C(F)(F)F)cn1)N(C)C(=O)c1cc2c(cc1F)nc(N)c1cnn(C)c12` [Example 780, 4-amino-7-fluoro-N,1-dimethyl-N-((1R)-1-(5-(trifluoromethyl)-2-pyrazinyl)ethyl)-1H-pyrazolo[4,3-c]quinoline-8-carboxamide], for which the IC50 in the assay on HCT116 MTAP null cells came to 22 nM; with HCT116 WT cells, 1180 nM.
`CCN(C(=O)c1cc2c3c(c(N)nc2cc1F)COC3)[C@H](C)c1ccc(C(F)(F)F)nn1` [Example 781, 4-amino-N-ethyl-7-fluoro-N-((1R)-1-(6-(trifluoromethyl)-3-pyridazinyl)ethyl)-1,3-dihydrofuro[3,4-c]quinoline-8-carboxamide]: the figures for the IC50 in the assay on HCT116 MTAP null cells and in the assay with HCT116 WT cells were 37 nM and 1310 nM, respectively.
Take `CN(Cc1ccc(C(F)(F)F)nc1F)C(=O)c1cc2c(cc1F)nc(N)c1cnn(C)c12` [Example 782, 4-amino-7-fluoro-N-((2-fluoro-6-(trifluoromethyl)-3-pyridinyl)methyl)-N,1-dimethyl-1H-pyrazolo[4,3-c]quinoline-8-carboxamide]: the IC50 with HCT116 MTAP null cells is 80 nM; with HCT116 WT cells it was 7770 nM.
In the same order, the values of `CCN(C(=O)c1ccc2nc(N)c3c(c2c1)COC3)[C@@H](c1ccc(C(F)(F)F)nn1)C1CC1` [Example 783, 4-amino-N-((R)-cyclopropyl(6-(trifluoromethyl)-3-pyridazinyl)methyl)-N-ethyl-1,3-dihydrofuro[3,4-c]quinoline-8-carboxamide] are 868 nM and 16400 nM.
On to `CCN(C(=O)c1cc2c3c(c(N)nc2cc1F)[C@@H](C)OC3)[C@H](C)c1ccc(C(F)(F)F)nn1` [Example 784, (3R)-4-amino-N-ethyl-7-fluoro-3-methyl-N-((1R)-1-(6-(trifluoromethyl)-3-pyridazinyl)ethyl)-1,3-dihydrofuro[3,4-c]quinoline-8-carboxamide], for which the IC50 in the assay on HCT116 MTAP null cells worked out at 22 nM; with HCT116 WT cells, 609 nM.
In the same order, the values of `CCN(C(=O)c1cc2c3c(c(N)nc2cc1F)[C@H](C)OC3)[C@H](C)c1ccc(C(F)(F)F)nn1` [Example 785, (3S)-4-amino-N-ethyl-7-fluoro-3-methyl-N-((1R)-1-(6-(trifluoromethyl)-3-pyridazinyl)ethyl)-1,3-dihydrofuro[3,4-c]quinoline-8-carboxamide] are 851 nM and 19800 nM.
For the compound `C[C@H](c1ccc(C(F)(F)C(F)(F)F)cc1)N(C)C(=O)c1cc2c(cn1)nc(N)c1c2cnn1C` [Example 786, 4-amino-N,3-dimethyl-N-((1R)-1-(4-(pentafluoroethyl)phenyl)ethyl)-3H-pyrazolo[3,4-c][1,7]naphthyridine-8-carboxamide], the IC50 in the assay with HCT116 MTAP null cells worked out at 126 nM; in the assay with HCT116 WT cells it was 7330 nM.
Consider `C[C@@H](c1ccc(C(F)(F)C(F)(F)F)cc1)N(C)C(=O)c1cc2c(cc1F)nc(N)c1cnn(C)c12` [Example 787, 4-amino-7-fluoro-N,1-dimethyl-N-((1S)-1-(4-(pentafluoroethyl)phenyl)ethyl)-1H-pyrazolo[4,3-c]quinoline-8-carboxamide], for which the IC50 was 865 nM with HCT116 MTAP null cells and 8970 nM with HCT116 WT cells.
As to `C[C@H](c1ccc(C(F)(F)C(F)(F)F)cc1)N(C)C(=O)c1cc2c(cc1F)nc(N)c1cnn(C)c12` [Example 788, 4-amino-7-fluoro-N,1-dimethyl-N-((1R)-1-(4-(pentafluoroethyl)phenyl)ethyl)-1H-pyrazolo[4,3-c]quinoline-8-carboxamide], the values for the IC50 in the assay on HCT116 MTAP null cells and with HCT116 WT cells were 8 nM and 134 nM, respectively.
In the same order, the values of `CN(Cc1ccc(-c2cnn(C(F)(F)F)c2)cn1)C(=O)c1cc2c(cc1F)nc(N)c1cnn(C)c12` [Example 789, 4-amino-7-fluoro-N,1-dimethyl-N-((5-(1-(trifluoromethyl)-1H-pyrazol-4-yl)-2-pyridinyl)methyl)-1H-pyrazolo[4,3-c]quinoline-8-carboxamide] are 83 nM and 6930 nM.
With `Cn1ncc2c(N)nc3ccc(C(=O)N(Cc4ccc(C(F)(F)F)nn4)C4CC4)cc3c21` [Example 790, 4-amino-N-cyclopropyl-1-methyl-N-((6-(trifluoromethyl)-3-pyridazinyl)methyl)-1H-pyrazolo[4,3-c]quinoline-8-carboxamide], the values for the IC50 with HCT116 MTAP null cells and in the assay with HCT116 WT cells were 776 nM and 47100 nM, respectively.
As to `CN(Cc1ccc(C(F)(F)F)cn1)C(=O)c1cc2c(cc1Cl)nc(N)c1cnn(C)c12` [Example 791, 4-amino-7-chloro-N,1-dimethyl-N-((5-(trifluoromethyl)-2-pyridinyl)methyl)-1H-pyrazolo[4,3-c]quinoline-8-carboxamide], the IC50 in the assay on HCT116 MTAP null cells was 11 nM; with HCT116 WT cells, 341 nM.
In the same order, the values of `CN(Cc1ccc(C(F)(F)F)nn1)C(=O)c1cc2c(cc1Cl)nc(N)c1cnn(C)c12` [Example 792, 4-amino-7-chloro-N,1-dimethyl-N-((6-(trifluoromethyl)-3-pyridazinyl)methyl)-1H-pyrazolo[4,3-c]quinoline-8-carboxamide] are 30 nM and 2330 nM.

The record behind these values is patent US20240101570A1 (AMGEN INC., priority 2020, published 2024).
